Measurements: US10441597B2, “Ciclesonide for the treatment of airway disease in horses” (Boehringer Ingelheim Vetmedica GmbH, priority 2012, dated 2019)
Like-named read-outs stand apart in the source and are kept apart here.

What was measured:
cortisol levels [1] = settings: horses; after aerosol administration; cited from earlier work
cortisol levels [2] = settings: humans; after aerosol administration/inhalation; cited from earlier work
[3] = when taken orally; cited from earlier work
RAO horses [4] = test: Moldy hay challenge study in RAO horses: lung function variables (transpulmonary pressure, lung resistance, lung elastance); type: in vivo, horse; settings: dexamethasone 0.066 mg/kg per os once daily, after 14 days
From the text: (§1) The commercially available […]® is used in the study.

RAO horses [5] = test: Moldy hay challenge study in RAO horses: clinical score (breathing effort score, weighted clinical score); type: in vivo, horse; settings: dexamethasone 0.066 mg/kg per os once daily
From the text: as §1

[6] = system: segmented neutrophils and lymphocytes; test: Moldy hay challenge study in RAO horses: segmented neutrophil and lymphocyte counts; type: in vivo, horse; settings: for Lymphocytes count after administration / Segmented neutrophil count after administration: dexamethasone 0.066 mg/kg per os once daily
Procedure: as §1
The segmented neutrophil counts and the lymphocyte counts are determined in the studies above: ciclesonide treatment versus dexamethasone treatment.

SMILES	Measured cortisol levels (cortisol levels [1])	Measured cortisol levels (cortisol levels [2])	Potency relative to prednisone [3] [times]	Potency relative to the naturally occurring hormone cortisol [3] [times]	All lung function variables compared to pretreatment values (RAO horses [4]; 1st ciclesonide study, p<0.0001)	All lung function variables compared to pretreatment values (RAO horses [4]; 2nd ciclesonide study, p=0.0009 to p<0.0001)	All lung function variables compared to pretreatment values (RAO horses [4]; Budesonide study, p≤0.0001)	Breathing effort score (RAO horses [5]; 1st ciclesonide study, any measured time point)	Weighted clinical score compared to pretreatment values (RAO horses [5]; 2nd ciclesonide study, after 14 days, p=0.0001 to p<0.0001)	Clinical score compared to pretreatment values (RAO horses [5]; Budesonide study, after 7 and 14 days, p=0.002 to p<0.0001)	Lymphocytes count after administration ([6]; 1st ciclesonide study)	Segmented neutrophil count after administration ([6]; 1st ciclesonide study)	Lymphocytes count after administration ([6]; 2nd ciclesonide study)	Segmented neutrophil count after administration ([6]; 2nd ciclesonide study)	Neutrophilia and lymphopenia ([6]; after treatment with dexamethasone, 1st and 2nd ciclesonide studies (Table 2))
C[C@@H]1C[C@H]2[C@@H]3C[C@H](F)C4=CC(=O)C=C[C@]4(C)[C@@]3(F)[C@@H](O)C[C@]2(C)[C@@]1(O)C(=O)SCF [fluticasone]	significant suppression	significant suppression													
C[C@@H]1C[C@H]2[C@@H]3CCC4=CC(=O)C=C[C@]4(C)[C@@]3(F)[C@@H](O)C[C@]2(C)[C@@]1(O)C(=O)CO [dexamethasone]			7	27	significantly reduced	significantly reduced	significantly reduced	no significant changes	significantly reduced	significantly reduced	decreased	increased	decreased	increased	commonly observed
